Measurements as given in patent US12503471B2, “Triazatricycle compounds for the treatment of autoimmune disease” (Hoffmann-La Roche Inc., priority 2019, dated 2025).

Key:
human TLR7 = target: T1, human TLR7 (Homo sapiens, UniProt Q9NYK1); experiment: HEK293-Blue-hTLR-7 cells assay; format: cell-based; details: HEK293-Blue-hTLR7 cells, R848 stimulation, 20 hrs, SEAP reporter; read-out: HEK/hTLR7 IC50
T1 construct: host or cells: HEK293 (HEK-Blue hTLR7)
T1 sequence (Q9NYK1 27-1049): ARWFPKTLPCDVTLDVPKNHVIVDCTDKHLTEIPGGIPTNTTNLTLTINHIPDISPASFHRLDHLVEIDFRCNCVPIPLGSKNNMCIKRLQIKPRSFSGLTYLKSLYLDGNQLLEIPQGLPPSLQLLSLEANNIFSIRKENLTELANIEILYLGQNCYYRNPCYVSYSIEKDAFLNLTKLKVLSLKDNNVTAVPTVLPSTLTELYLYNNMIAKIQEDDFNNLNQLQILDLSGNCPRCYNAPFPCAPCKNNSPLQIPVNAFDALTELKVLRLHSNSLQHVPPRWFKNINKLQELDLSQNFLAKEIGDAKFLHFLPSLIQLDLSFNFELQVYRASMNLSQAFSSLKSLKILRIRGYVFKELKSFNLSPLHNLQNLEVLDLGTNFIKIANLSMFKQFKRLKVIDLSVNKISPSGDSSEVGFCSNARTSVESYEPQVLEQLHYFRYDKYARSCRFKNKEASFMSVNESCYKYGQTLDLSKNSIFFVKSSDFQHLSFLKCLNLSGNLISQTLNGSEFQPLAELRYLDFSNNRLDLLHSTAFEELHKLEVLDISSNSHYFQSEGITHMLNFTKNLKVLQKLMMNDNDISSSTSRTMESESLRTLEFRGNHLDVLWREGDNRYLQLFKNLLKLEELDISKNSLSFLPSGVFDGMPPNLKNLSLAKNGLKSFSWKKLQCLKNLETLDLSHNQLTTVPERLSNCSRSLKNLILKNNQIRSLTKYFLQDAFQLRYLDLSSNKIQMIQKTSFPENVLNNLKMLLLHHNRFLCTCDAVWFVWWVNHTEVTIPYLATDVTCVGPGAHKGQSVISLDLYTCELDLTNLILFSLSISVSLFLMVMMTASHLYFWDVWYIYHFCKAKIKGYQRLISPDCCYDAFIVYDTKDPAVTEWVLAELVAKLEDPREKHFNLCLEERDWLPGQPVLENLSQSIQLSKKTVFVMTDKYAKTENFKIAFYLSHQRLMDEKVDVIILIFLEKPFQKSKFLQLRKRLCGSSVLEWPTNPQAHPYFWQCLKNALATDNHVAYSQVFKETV
Excerpt: HEK293-Blue-hTLR-7 Cells Assay:
A stable HEK293-Blue-hTLR-7 cell line was purchased from InvivoGen (Cat. #: hkb-htlr7, San Diego, Calif., USA). These cells were originally designed for studying the stimulation of human TLR7 by monitoring the activation of NF-κB. A SEAP (secreted embryonic alkaline phosphatase) reporter gene was placed under the control of the IFN-β minimal promoter fused to five NF-κB and AP-1-binding sites. The SEAP was induced by activating NF-κB and AP-1 via stimulating HEK-Blue hTLR7 cells with TLR7 ligands. Therefore the reporter expression was declined by TLR7 antagonist under the stimulation of a ligand, such as R848 (Resiquimod), for incubation of 20 hrs. The cell culture supernatant SEAP reporter activity was determined using QUANTI-Blue™ kit (Cat. #: rep-qbl, Invivogen, San Diego, Ca, USA) at a wavelength of 640 nm, a detection medium that turns purple or blue in the presence of alkaline phosphatase.
HEK293-Blue-hTLR7 cells were incubated at a density of 250,000˜450,000 cells/mL in a volume of 170 μL in a 96-well plate in Dulbecco's Modified Eagle's medium (DMEM) containing 4.5 g/L glucose, 50 U/mL penicillin, […], […], 2 mM L-glutamine, 10% (v/v) heat-inactivated fetal bovine serum with addition of 20 μL test compound in a serial dilution in the presence of final DMSO at 1% and 10 μL of 20 uM R848 in above DMEM, perform incubation under 37° C. in a CO2 incubator for 20 hrs. Then 20 μL of the supernatant from each well was incubated with 180 μL Quanti-blue substrate solution at 37° C. for 2 hrs and the absorbance was read at 620-655 nm using a spectrophotometer. The signaling pathway that TLR7 activation leads to downstream NF-κB activation has been widely accepted, and therefore similar reporter assay was modified for evaluating TLR7 antagonist.

[1] = Human microsomal stability assay; format: in vitro ADME; details: human liver microsomes, 1 μM test compound, 0.5 mg/mL protein, 37° C., pH 7.4
Procedure: Human Microsomal Stability Assay
Human liver microsomes (Cat.NO.: 452117, Corning, USA) were preincubated with test compound for 10 minutes at 37° C. in 100 mM potassium phosphate buffer, pH 7.4. The reactions were initiated by adding NADPH regenerating system. The final incubation mixtures contained 1 μM test compound, 0.5 mg/mL liver microsomal protein, 1 mM MgCl2, 1 mM NADP, 1 unit/mL isocitric dehydrogenase and 6 mM isocitric acid in 100 mM potassium phosphate buffer, pH 7.4. After incubation times of 0, 3, 6, 9, 15 and 30 minutes at 37° C., 300 μL of cold ACN (including internal standard) was added to 100 μL incubation mixture to terminate the reaction. Following precipitation and centrifugation, 100 uL supernatant will be taken out and added 300 uL water. The amount of compound remaining in the samples was determined by LC-MS/MS. Controls of no NADPH regenerating system at zero and 30 minutes were also prepared and analyzed. The results were categorized as: low (7.0 mL/min/kg), medium (7.0-16.2 mL/min/kg) and high (16.2-23.2 mL/min/kg).

| Compound | IC50 (human TLR7) | CL (h) [1] |
| --- | --- | --- |
| [2H]c1ccc2c(N3C[C@@H](C)N4Cc5nc(O[C@H]6CCNC6)ccc5[C@H]4C3)ccc(C#N)c2n1 [Example 25, 2-Deuterio-5-[(2S,6R)-6-methyl-11-[(3S)-pyrrolidin-3-yl]oxy-4,7,10-triazatricyclo[7.4.0.02,7]trideca-1(9),10,12-trien-4-yl]quinoline-8-carbonitrile] | 1 nM |  |
| [2H]c1ccc2c(N3C[C@@H](C)N4Cc5nc(N6CCC7(CC6)CNCCO7)ccc5[C@H]4C3)ccc(C#N)c2n1 [Example 18, 2-Deuterio-5-[(2S,6R)-6-methyl-11-(1-oxa-4,9-diazaspiro[5.5]undecan-9-yl)-4,7,10-triazatricyclo[7.4.0.02,7]trideca-1(9),10,12-trien-4-yl]quinoline-8-carbonitrile] | 1.3 nM |  |
| [2H]c1ccc2c(N3C[C@@H](C)N4Cc5nc(N6CC[C@H](N)[C@@H](OC)C6)ccc5[C@H]4C3)ccc(C#N)c2n1 [Example 12, 5-[(2S,6R)-11-[(3S,4S)-4-amino-3-methoxy-1-piperidyl]-6-methyl-4,7,10-triazatricyclo[7.4.0.02,7]trideca-1(9),10,12-trien-4-yl]-2-deuterio-quinoline-8-carbonitrile] | 1.6 nM |  |
| [2H]c1ccc2c(N3C[C@@H](C)N4Cc5nc(N6C[C@H]7C[C@@H]6CN7)ccc5[C@H]4C3)ccc(C#N)c2n1 [Example 17, 2-Deuterio-5-[(2S,6R)-11-[(1R,4R)-2,5-diazabicyclo[2.2.1]heptan-2-yl]-6-methyl-4,7,10-triazatricyclo[7.4.0.02,7]trideca-1(9),10,12-trien-4-yl]quinoline-8-carbonitrile] | 2.7 nM |  |
| N#Cc1ccc(N2CCN3Cc4nc(N5CCNCC5)ccc4[C@@H]3C2)c2cccnc12 [Example 3A, 5-[(2R)-11-piperazin-1-yl-4,7,10-triazatricyclo[7.4.0.02,7]trideca-1(9),10,12-trien-4-yl]quinoline-8-carbonitrile] | 14.8 nM | 0.504 L/h/kg |
| [2H]c1ccc2c(N3C[C@@H](C)N4Cc5nc(N6CC[C@](C)(N)C6)ccc5[C@H]4C3)ccc(C#N)c2n1 [Example 8, 5-[(2S,6R)-11-[(3S)-3-amino-3-methyl-pyrrolidin-1-yl]-6-methyl-4,7,10-triazatricyclo[7.4.0.02,7]trideca-1(9),10,12-trien-4-yl]-2-deuterio-quinoline-8-carbonitrile] | 1.3 nM | 0.372 L/h/kg |
| C[C@@H]1CN(c2ccc(C#N)n3nccc23)C[C@@H]2c3ccc(N4C[C@@H]5C[C@H]4CN5)nc3CN12 [Example 21, 4-[(2S,6R)-11-[(1S,4S)-2,5-diazabicyclo[2.2.1]heptan-2-yl]-6-methyl-4,7,10-triazatricyclo[7.4.0.02,7]trideca-1(9),10,12-trien-4-yl]pyrazolo[1,5-a]pyridine-7-carbonitrile] | 7 nM | 0.396 L/h/kg |
| C[C@@H]1CN(c2ccc(C#N)c3ncccc23)C[C@@H]2c3cnc(N4CCNCC4)cc3CN12 [Example 2, 5-[(2S,6R)-6-methyl-11-piperazin-1-yl-4,7,12-triazatricyclo[7.4.0.02,7]trideca-1(9),10,12-trien-4-yl] quinoline-8-carbonitrile] | 3.1 nM | 0.372 L/h/kg |
| [2H]c1ccc2c(N3C[C@@H](C)N4Cc5nc(C6CCNCC6)ccc5[C@H]4C3)ccc(C#N)c2n1 [Example 23, 2-Deuterio-5-[(2S,6R)-6-methyl-11-(4-piperidyl)-4,7,10-triazatricyclo[7.4.0.02,7]trideca-1(9),10,12-trien-4-yl]quinoline-8-carbonitrile] | 1.7 nM | 0.372 L/h/kg |
| C[C@@H]1CN(c2ccc(C#N)c3ncccc23)C[C@@H]2c3ccc(N4CCNCC4)nc3CN12 [Example 5, 5-[(2S,6R)-6-methyl-11-piperazin-1-yl-4,7,10-triazatricyclo[7.4.0.02,7]trideca-1(9),10,12-trien-4-yl]quinoline-8-carbonitrile] | 0.9 nM | 0.486 L/h/kg |
| C[C@@H]1CN(c2ccc(C#N)c3ncccc23)C[C@@H]2c3ccc(N4CC5CNCC(C4)O5)nc3CN12 [Example 6, 5-[(2S,6R)-6-methyl-11-(9-oxa-3,7-diazabicyclo[3.3.1]nonan-3-yl)-4,7,10-triazatricyclo[7.4.0.02,7]trideca-1(9),10,12-trien-4-yl]quinoline-8-carbonitrile] | 4.9 nM | 0.372 L/h/kg |
| [2H]c1ccc2c(N3C[C@@H](C)N4Cc5nc(N6CC[C@H](OC)[C@@H](N)C6)ccc5[C@H]4C3)ccc(C#N)c2n1 [Example 14, 5-[(2S,6R)-11-[(3S,4S)-3-amino-4-methoxy-1-piperidyl]-6-methyl-4,7,10-triazatricyclo[7.4.0.02,7]trideca-1(9),10,12-trien-4-yl]-2-deuterio-quinoline-8-carbonitrile] | 3.4 nM |  |
| [2H]c1ccc2c(N3C[C@@H](C)N4Cc5nc(N6CC[C@H]7CNC[C@H]76)ccc5[C@H]4C3)ccc(C#N)c2n1 [Example 10, 5-[(2S,6R)-11-[(3aS,6aS)-3,3a,4,5,6,6a-hexahydro-2H-pyrrolo[2,3-c]pyrrol-1-yl]-6-methyl-4,7,10-triazatricyclo[7.4.0.02,7]trideca-1(9),10,12-trien-4-yl]-2-deuterio-quinoline-8-carbonitrile] | 1.9 nM |  |
| C[C@@H]1CN(c2ccc(C#N)c3ncccc23)C[C@@H]2c3ccc(N4CCCNCC4)nc3CN12 [Example 20, 5-[(2S,6R)-11-(1,4-diazepan-1-yl)-6-methyl-4,7,10-triazatricyclo[7.4.0.02,7]trideca-1(9),10,12-trien-4-yl]quinoline-8-carbonitrile] | 2 nM |  |
| [2H]c1ccc2c(N3C[C@@H](C)N4Cc5nc(N6CC[C@@H](OC)[C@H](N)C6)ccc5[C@H]4C3)ccc(C#N)c2n1 [Example 15, 5-[(2S,6R)-11-[(3R,4R)-3-amino-4-methoxy-1-piperidyl]-6-methyl-4,7,10-triazatricyclo[7.4.0.02,7]trideca-1(9),10,12-trien-4-yl]-2-deuterio-quinoline-8-carbonitrile] | 2.6 nM |  |
| [2H]c1ccc2c(N3C[C@@H](C)N4Cc5nc(N6CCC(C)(N)CC6)ccc5[C@H]4C3)ccc(C#N)c2n1 [Example 19, 5-[(2S,6R)-11-(4-amino-4-methyl-1-piperidyl)-6-methyl-4,7,10-triazatricyclo[7.4.0.02,7]trideca-1(9),10,12-trien-4-yl]-2-deuterio-quinoline-8-carbonitrile] | 1.1 nM |  |
